Reference: patent US20210121438A1, “METHODS FOR TREATING OR PREVENTING CONFORMATION DISEASES AND METHODS FOR DRUG SCREENING” (GARAGE BRAIN SCIENCE CO., LTD, priority 2018, published 2021)

Assays:
[1] = target: T1, full-length TDP-43 recombinant protein (Homo sapiens, UniProt Q13148); test: In vitro analysis of TDP-43 fiber formation (negative staining electron microscopy); type: biochemical
T1 construct: Three-micromolar full-length TDP-43 recombinant protein (GenWay); purchased GenWay

TDP-43 polymers = target: T2, TDP-43 polymers (Homo sapiens, UniProt Q13148); test: Western blotting of TDP-43 polymers in nuclear, cytosolic and urea fractions; type: cell-based
T2 construct: endogenous in cells; host or cells: 293T
Experimental: Solubility Assay of TDP-43 and p53: Cells with or without transfection of TDP-43-FL or TDP-43-Q303P were lysed with RIPA buffer (50 mM Tris, 150 mM NaCl, 1 mM EDTA, 1% NP-40, pH 7.4), and the lysate was further fractionated by centrifugation at 16,000 g for 5 min at 4° C. The insoluble pellets were then dissolved in 8 M urea/50 mM Tris (pH 8.0). The proteins were identified by Western blotting using a polyclonal TDP-43 antibody or a monoclonal p53 antibody.
TDP-43 proteinopathies in FTLD/ALS with the VCP/97 mutation R155H have been characterized. The VCP/97 mutation R155H alters the functions of VCP/97, redistributes TDP-43 to the cytosol, and leads to form-insoluble aggregates of TDP-43.

[2] = tested on: TDP-43 in cells expressing progeria proteins; test: Localization of TDP-43 in progeria-expressing cells (immunofluorescence); type: cell-based
Experimental: Immunohistochemistry: Fluorescence staining was performed as described previously (Wang et al., 2012). Cells were transfected with or without plasmids or siRNAs and grown for 24 to 48 hr. Cells were fixed with 3.7% paraformaldehyde in PBS at RT for 15 min and then permeabilized with 0.1% Triton X-100. The fixed cells were incubated with primary antibodies at RT for 2 hr followed by incubation with Cy2- or Cy3-labeled secondary antibodies (Molecular Probes). Slides were mounted using Vectashield DAPI H-1200 (Vector). Cellular fluorescence images were collected using an LSM710 META laser-scanning confocal microscope (Zeiss).
To further characterize whether TDP-43 proteins are present in the nuclear matrix, consisting of proteins such as lamina A/C, we double-stained TDP-43 (green) with lamina A/C (red) (FIG. 7). The TDP-43 fibrogranular framework was partially connected to lamina A/C (FIG. 7a, the arrow indicates the colocalization area). As defective lamin A can cause progeria and the a premature aging disorder HGPS, overexpression of progeria proteins is considered a cell model of aging and allowed us to explore the mechanistic link between TDP-43 and aging or a lamin A pathology. We thus overexpressed progeria proteins and examined TDP-43 localization, the efficiency of TDP-43PLD-mediated exon 9 skipping and TDP-43 polymers. […]

[3] = tested on: progeria-expressing cells; test: Nuclear shape in progeria-expressing cells (anti-lamin A/C immunostaining); type: cell-based; conditions: progeria-expressing cells (HGPS model)
PFN1 and SMNA7 = target: T3, PFN1 and SMNA7 (Homo sapiens, UniProt Q16637); test: Co-immunoprecipitation of PFN1 and SMNA7; type: cell-based; conditions: in the presence of baicalein
T3 construct: expressed in transfected cells
Text: (§1) We investigate whether baicalein can act as a pharmacological chaperone to refold misfolded SMNA7 into a functional prion-like domain, as shown in FIG. 8 (FIG. 10a). […] PFN1 is a known SMN interactor in the cytosol. We further examined whether baicalein attenuated the degradation of the SMNA7 protein. […] We found baicalein increased the length of axons from NSC34 cells expressing SMNA7 by approximately 2-fold (FIG. 10g).

SMNA7 protein = target: T4, SMNA7 protein (Homo sapiens, UniProt Q16637); test: SMNA7 protein degradation (Western blotting); type: cell-based; conditions: baicalein
T4 construct: expressed in transfected cells
Text: as §1

SMA mice (Smn−/−SMN2+/−) = test: Motor function tests in SMA mice (turnover, tube, negative geotaxis); type: in vivo
Text: Mice: A mouse model of SMA was produced by deleting exon 7 of the Smn gene and knock-in of the human SMN2 gene (Smn−/−SMN2+/−). We were able to generate a variant that presents a more severe disease symptomatology through back-crossing to obtain a more homogenous genetic background. This model of severe SMA harbors two copies of the SMN2 transgene (Smn−/−SMN2+/−). The mouse model of SMA was generated through crossing the heterozygous knockout mice (Smn+/−SMN2−/−) with the homozygous knockout mice carrying two copies of the SMN2 transgene (Smn−/−SMN2+/+). SMA mice were subjected to daily intraperitoneal injections of baicalein (40 mg/kg/d in alcohol) or alcohol alone (control) from birth and then subjected to motor function tests and survival analysis. Three behavioral tests, the turnover test, tube test and negative geotaxis test, were conducted to evaluate the motor function of mice with SMA (Smn−/−SMN2+/−) and heterozygous littermates (Smn+/−SMN2+/−), as previously described. In the turnover test, the time required for a mouse to right itself and place all four paws on the ground from a prone position was recorded (the cutoff time was 60 s). The tube test was used to determine hind limb strength according to the posture of the hind limbs and the tail; scores ranged from 0 (the worst) to 4 (the best). In the negative geotaxis test, mice were placed on a 45° incline with their head pointing downward. The responses (turning and climbing) were scored from 0 (the worst) to 4 (the best).
A mouse model of SMA received daily intraperitoneal injections of baicalein ([…]) from birth, and we then assessed the animals using motor function tests and survival analyses to determine whether the in vitro findings were recapitulated in a mouse model in vivo (FIG. 10i). However, after baicalein treatment, the functional performance of SMA mice, including righting time, tube score, and tilting score, was improved at the 6th postnatal day (p<0.05), and the results were similar to heterozygous littermates treated with or without baicalein. […] Our studies provide a method for restoring the functional SMN protein by modulating the folding of the SMNA7 C-terminus and SMA-associated mutants to ensure that the protein performs the cellular functions of full-length SMN.

[4] = SMA mice, daily intraperitoneal baicalein 13.6 mg/kg/d from birth, 6th postnatal day, p<0.05

T1 sequence (Q13148 whole entry): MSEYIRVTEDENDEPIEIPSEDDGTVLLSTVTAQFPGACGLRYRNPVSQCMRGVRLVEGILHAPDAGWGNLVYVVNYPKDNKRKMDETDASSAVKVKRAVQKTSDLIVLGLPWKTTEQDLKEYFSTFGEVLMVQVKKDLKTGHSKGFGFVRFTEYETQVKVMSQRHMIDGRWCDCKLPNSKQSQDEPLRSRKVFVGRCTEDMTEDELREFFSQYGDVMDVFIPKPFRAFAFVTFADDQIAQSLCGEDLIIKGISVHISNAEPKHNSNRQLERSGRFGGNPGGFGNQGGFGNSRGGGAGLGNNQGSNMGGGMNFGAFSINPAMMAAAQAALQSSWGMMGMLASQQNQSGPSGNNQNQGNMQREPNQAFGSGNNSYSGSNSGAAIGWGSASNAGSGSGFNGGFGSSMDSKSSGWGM
T2 sequence (Q13148 whole entry): as above
T3 sequence (Q16637 1-282 isoform Q16637-3): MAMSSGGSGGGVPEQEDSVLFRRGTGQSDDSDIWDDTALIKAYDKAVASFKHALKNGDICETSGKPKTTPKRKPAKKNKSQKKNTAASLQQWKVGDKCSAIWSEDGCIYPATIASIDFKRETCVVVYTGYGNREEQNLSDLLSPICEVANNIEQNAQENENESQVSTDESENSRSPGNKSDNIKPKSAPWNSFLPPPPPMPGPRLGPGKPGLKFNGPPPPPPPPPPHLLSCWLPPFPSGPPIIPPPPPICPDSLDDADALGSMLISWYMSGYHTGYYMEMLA
T4 sequence (Q16637 1-282 isoform Q16637-3): as above

O=c1cc(-c2ccccc2)oc2cc(O)c(O)c(O)c12 [baicalein]
length of baicalein-inducing TDP-43 polymers ([1]; 3 μM TDP-43 with 3 μM baicalein, RT, agitation, 30-90 min, fibers without compound 3 to 10 μm): 0.15-0.9 μm
remodeling of TDP-43 fibers, oligomers or natively unfolded monomers ([1]; equimolar baicalein, time-dependent): efficiently remodeled into ordered TDP-43 polymers
TDP-43 polymers in nuclear fraction (TDP-43 polymers; 293T cells, 0, 25 or 50 μM baicalein): compensatory increase in the nuclear fraction
TDP-43 polymers (TDP-43 polymers; baicalein-treated VCP/p97 R155H cells): increased TDP-43 polymers
nuclear localization of TDP-43 [2]: significantly induced the retention of nuclear TDP-43
nuclear shape defects [3]: corrected nuclear shape defects in HGPS
interactions between PFN1 and SMNA7 (PFN1 and SMNA7): significantly increased
SMNA7 degradation (SMNA7 protein): significantly reduced SMNA7 degradation
functional performance in the tube test versus control SMA mice (SMA mice (Smn−/−SMN2+/−); 8th postnatal day, p=0.009): better than that of the control SMA mice
functional performance better than control SMA mice in the negative geotaxis test (SMA mice (Smn−/−SMN2+/−); 8th postnatal day, p=0.58): not
righting time (turnover test) (SMA mice (Smn−/−SMN2+/−); [4]): improved
tilting score (negative geotaxis test) (SMA mice (Smn−/−SMN2+/−); [4]): improved
tube score (SMA mice (Smn−/−SMN2+/−); [4]): improved
